This passage reports IC50 results from patent US20240092773A1, “DIHYDRO-CYCLOPENTA-ISOQUINOLINE SULFONAMIDES DERIVATIVES” (UCB Biopharma SRL, priority 2019, published 2024).

The assay has as its target IgE-Tb binding to soluble IgE receptor FcεR1α (Y131A mutation) (Homo sapiens, UniProt P01854, N146Q/N252Q). Description: In vitro FRET assay: inhibition of binding of IgE-Tb to receptor FcεR1α-Y131A-AF488. Conditions: read-out: FRET IC50 range.

Chain of IgE-Tb binding to soluble IgE receptor FcεR1α (Y131A mutation) (P01854 whole entry N146Q/N252Q, looked up): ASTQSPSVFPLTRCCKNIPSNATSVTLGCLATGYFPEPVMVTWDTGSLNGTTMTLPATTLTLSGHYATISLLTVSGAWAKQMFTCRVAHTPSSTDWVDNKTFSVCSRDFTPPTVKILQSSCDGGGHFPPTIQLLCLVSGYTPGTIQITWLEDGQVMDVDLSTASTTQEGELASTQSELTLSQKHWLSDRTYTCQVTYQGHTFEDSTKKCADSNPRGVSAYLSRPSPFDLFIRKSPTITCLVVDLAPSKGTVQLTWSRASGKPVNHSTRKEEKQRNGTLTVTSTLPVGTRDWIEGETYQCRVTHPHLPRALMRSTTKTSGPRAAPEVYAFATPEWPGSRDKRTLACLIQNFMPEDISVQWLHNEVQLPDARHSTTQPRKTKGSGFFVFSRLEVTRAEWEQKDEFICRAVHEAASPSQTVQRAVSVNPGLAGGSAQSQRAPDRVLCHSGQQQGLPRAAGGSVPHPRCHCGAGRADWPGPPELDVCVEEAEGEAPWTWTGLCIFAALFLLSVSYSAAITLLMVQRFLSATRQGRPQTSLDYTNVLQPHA

Broadly, the IC50 is the point on the concentration scale where inhibition reaches its midpoint. With `Cc1cc(Nc2nncn2[C@H]2CCc3c2cc(S(=O)(=O)NCC(C)(C)F)c2cc(C4CC4)nnc32)n(C)n1` (single isomer, unassigned) [Example 25, (7R*)-3-cyclopropyl-7-[3-[(2,5-dimethylpyrazol-3-yl)amino]-1,2,4-triazol-4-yl]-N-(2-fluoro-2-methylpropyl)-8,9-dihydro-7H-cyclopenta[h]cinnoline-5-sulfonamide], the half-inhibitory concentration (IC50) was in the range of 50 to 100 nM.
On to `CC(C)(F)CNS(=O)(=O)c1cc2c(c3cnc(C4CC4)cc13)CC[C@H]2Nc1nccn1CC1CC1` (single isomer, unassigned) [Example 13, (7R*)-3-cyclopropyl-7-[[1-(cyclopropylmethyl)imidazol-2-yl]amino]-N-(2-fluoro-2-methylpropyl)-8,9-dihydro-7H-cyclopenta[h]isoquinoline-5-sulfonamide], for which the IC50 fell in the range of 100 to 2000 nM.
For `CC(C)(F)CNS(=O)(=O)c1cc2c(c3cnc(C4CC4)cc13)CCC2NCc1cc2ccccc2[nH]1` (stereo not shown) [Example 61, 3-cyclopropyl-N-(2-fluoro-2-methylpropyl)-7-(1H-indol-2-ylmethylamino)-8,9-dihydro-7H-cyclopenta[h]isoquinoline-5-sulfonamide], the IC50 was in the range of 100 to 2000 nM.
With `CC(C)(F)CNS(=O)(=O)c1cc2c(c3cnc(C4CC4)cc13)C(Nc1cccnc1)CC2` (stereo not shown) [Example 32, 3-cyclopropyl-N-(2-fluoro-2-methylpropyl)-9-(pyridin-3-ylamino)-8,9-dihydro-7H-cyclopenta[h]isoquinoline-5-sulfonamide], the IC50 fell in the range of 50 to 100 nM.
As to `CC(C)CNS(=O)(=O)c1cc2c(c3cnc(C4CC4)cc13)CCC2n1cnnc1Nc1cccnc1` (stereo not shown) [Example 91, 3-cyclopropyl-N-(2-methylpropyl)-7-[3-(pyridin-3-ylamino)-1,2,4-triazol-4-yl]-8,9-dihydro-7H-cyclopenta[h]isoquinoline-5-sulfonamide], the IC50 was in the range of 10 to 50 nM.
Then `Cc1nnc(-c2ccc(NC3CCc4c3cc(S(=O)(=O)NCC(C)(C)F)c3cc(C5CC5)ncc43)cn2)o1` (stereo not shown) [Example 42, 3-cyclopropyl-N-(2-fluoro-2-methylpropyl)-7-[[6-(5-methyl-1,3,4-oxadiazol-2-yl)pyridin-3-yl]amino]-8,9-dihydro-7H-cyclopenta[h]isoquinoline-5-sulfonamide], with 1 to 10 nM; and `CC(C)CNS(=O)(=O)c1cc2c(c3cnc(C4CC4)cc13)C(n1cnnc1Nc1ccnn1C)CC2` (stereo not shown) [Example 4, 3-cyclopropyl-N-isobutyl-9-[3-[(2-methylpyrazol-3-yl)amino]-1,2,4-triazol-4-yl]-8,9-dihydro-7H-cyclopenta[h]isoquinoline-5-sulfonamide], with 100 to 2000 nM.
On to `Cc1ccc(NC(=NC#N)NC2CCc3c2cc(S(=O)(=O)NCC(C)C)c2cc(C4CC4)ncc32)cc1` (stereo not shown) [Example 55, 2-cyano-1-[3-cyclopropyl-5-(2-methylpropylsulfamoyl)-8,9-dihydro-7H-cyclopenta[h]isoquinolin-7-yl]-3-(4-methylphenyl)guanidine], for which the 50% inhibitory concentration (IC50) lay in the range of 100 to 2000 nM.
In the case of `CC(C)CNS(=O)(=O)c1cc2c(c3cnc(C4CC4)cc13)C(Nc1c(Nc3cccnc3)c(=O)c1=O)CC2` (stereo not shown) [Example 78, 3-cyclopropyl-9-[[3,4-dioxo-2-(pyridin-3-ylamino)cyclobuten-1-yl]amino]-N-(2-methylpropyl)-8,9-dihydro-7H-cyclopenta[h]isoquinoline-5-sulfonamide], the IC50 lay in the range of 50 to 100 nM.
With `CC(C)(F)CNS(=O)(=O)c1cc2c(c3cnc(C4CC4)cc13)CCC2Oc1cccnc1` (stereo not shown) [Example 94, 3-cyclopropyl-N-(2-fluoro-2-methylpropyl)-7-pyridin-3-yloxy-8,9-dihydro-7H-cyclopenta[h]isoquinoline-5-sulfonamide], the IC50 lay in the range of 100 to 2000 nM.
Then `Cc1cc(-n2cnnc2NC2CCc3c2cc(S(=O)(=O)NCC(C)C)c2cc(C4CC4)ncc32)n(C)n1` (stereo not shown) [Example 88, 3-cyclopropyl-7-[[4-(2,5-dimethylpyrazol-3-yl)-1,2,4-triazol-3-yl]amino]-N-(2-methylpropyl)-8,9-dihydro-7H-cyclopenta[h]isoquinoline-5-sulfonamide], with 100 to 2000 nM; and `CC(C)CNS(=O)(=O)c1cc2c(c3cnc(C4CC4)cc13)[C@H](NC(=O)c1cccnc1)CC2` (single isomer, unassigned) [Example 21, N-[(9R*)-3-cyclopropyl-5-(2-methylpropylsulfamoyl)-8,9-dihydro-7H-cyclopenta[h]isoquinolin-9-yl]pyridine-3-carboxamide], with 10 to 50 nM; and `CC(C)(F)CNS(=O)(=O)c1cc2c(c3cnc(C4CC4)cc13)CCC2NC1=CC(=O)C1(C)C` (stereo not shown) [Example 60, 3-cyclopropyl-7-[(4,4-dimethyl-3-oxocyclobuten-1-yl)amino]-N-(2-fluoro-2-methylpropyl)-8,9-dihydro-7H-cyclopenta[h]isoquinoline-5-sulfonamide], with 100 to 2000 nM.
Then `Cc1cc(C(=O)N[C@@H]2CCc3cc(S(=O)(=O)NCC(C)C)c4cc(C5CC5)ncc4c32)n[nH]1` (single isomer, unassigned) [Example 20, 5-methyl-N-[(9R*)-3-cyclopropyl-5-(2-methylpropylsulfamoyl)-8,9-dihydro-7H-cyclopenta[h]isoquinolin-9-yl]-1H-pyrazole-3-carboxamide], with 100 to 2000 nM; and `CC(C)(F)CNS(=O)(=O)c1cc2c(c3cnc(C4CC4)cc13)CCC2n1nnnc1N` (stereo not shown) [Example 39, 7-(5-aminotetrazol-1-yl)-3-cyclopropyl-N-(2-fluoro-2-methylpropyl)-8,9-dihydro-7H-cyclopenta[h]isoquinoline-5-sulfonamide], with 100 to 2000 nM; and `CC(C)CNS(=O)(=O)c1cc2c(c3cnc(C4CC4)cc13)C(NS(=O)(=O)c1cccnc1)CC2` (stereo not shown) [Example 15, 3-cyclopropyl-N-(2-methylpropyl)-9-(pyridin-3-ylsulfonylamino)-8,9-dihydro-7H-cyclopenta[h]isoquinoline-5-sulfonamide], with 100 to 2000 nM.
To `Cn1cc(C#N)c(NC2CCc3cc(S(=O)(=O)NCC(C)(C)F)c4cc(C5CC5)ncc4c32)n1` (stereo not shown) [Example 67, 9-[(4-cyano-1-methylpyrazol-3-yl)amino]-3-cyclopropyl-N-(2-fluoro-2-methylpropyl)-8,9-dihydro-7H-cyclopenta[h]isoquinoline-5-sulfonamide] belongs 100 to 2000 nM; to `CC(C)CNS(=O)(=O)c1cc2c(c3cnc(C4CC4)cc13)CCC2(C)O` (stereo not shown) [Example 49, 3-cyclopropyl-7-hydroxy-7-methyl-N-(2-methylpropyl)-8,9-dihydrocyclopenta[h]isoquinoline-5-sulfonamide], 100 to 2000 nM; to `Cc1cncc(Nc2nncn2[C@@H]2CCc3c2cc(S(=O)(=O)NCC(C)C)c2cc(C4CC4)ncc32)c1` (single isomer, unassigned) [Example 89, (7R*)-3-cyclopropyl-N-(2-methylpropyl)-7-[3-[(5-methylpyridin-3-yl)amino]-1,2,4-triazol-4-yl]-8,9-dihydro-7H-cyclopenta[h]isoquinoline-5-sulfonamide], 1 to 10 nM.
On to `CC(C)CNS(=O)(=O)c1cc2c(c3cnc(C4CC4)cc13)CCC2O` (stereo not shown) [Example 47, 3-cyclopropyl-7-hydroxy-N-(2-methylpropyl)-8,9-dihydro-7H-cyclopenta[h]isoquinoline-5-sulfonamide], for which the IC50 is 100 to 2000 nM.
To `CC(C)CNS(=O)(=O)c1cc2c(c3cnc(C4CC4)cc13)CCC2=O` [Example 48, 3-cyclopropyl-N-(2-methylpropyl)-7-oxo-8,9-dihydrocyclopenta[h]isoquinoline-5-sulfonamide] belongs 100 to 2000 nM; to `[2H]C([2H])(NS(=O)(=O)c1cc2c(c3cnc(C4CC4)cc13)CCC2NC(=O)OC(C)(C)C)C(C)C` (stereo not shown) [Example 33, tert-butyl N-[3-cyclopropyl-5-[(1,1-dideuterio-2-methylpropyl)sulfamoyl]-8,9-dihydro-7H-cyclopenta[h]isoquinolin-7-yl]carbamate], 100 to 2000 nM; to `CC(C)(F)CNS(=O)(=O)c1cc2c(c3cnc(C4CC4)cc13)C(Nc1cncc3ccccc13)CC2` (stereo not shown) [Example 68, 3-cyclopropyl-N-(2-fluoro-2-methylpropyl)-9-(isoquinolin-4-ylamino)-8,9-dihydro-7H-cyclopenta[h]isoquinoline-5-sulfonamide], 100 to 2000 nM.
On to `CCn1cnnc1NC1CCc2cc(S(=O)(=O)NCC(C)C)c3cc(C4CC4)ncc3c21` (single isomer, unassigned) [Example 73, (9R*)-3-cyclopropyl-9-[(4-ethyl-1,2,4-triazol-3-yl)amino]-N-(2-methylpropyl)-8,9-dihydro-7H-cyclopenta[h]isoquinoline-5-sulfonamide], for which the IC50 is 10 to 50 nM.
Take `CC(C)CNS(=O)(=O)c1cc2c(c3cnc(C4CC4)cc13)C(NS(C)(=O)=O)CC2` (stereo not shown) [Example 70, 3-cyclopropyl-9-(methanesulfonamido)-N-(2-methylpropyl)-8,9-dihydro-7H-cyclopenta[h]isoquinoline-5-sulfonamide]: the IC50 fell in the range of 100 to 2000 nM.
In the case of `CCNC(=O)N[C@@H]1CCc2c1cc(S(=O)(=O)NCC(C)C)c1cc(C3CC3)ncc21` (stereo in doubt) [Example 85, 1-ethyl-3-[(7R*)-3-cyclopropyl-5-(2-methylpropylsulfamoyl-8,9-dihydro-7H-cyclopenta[h]isoquinolin-7-yl]urea], the IC50 lay in the range of 10 to 50 nM.
As for `COC(=O)c1ccc(NC2CCc3cc(S(=O)(=O)NCC(C)C)c4cc(C5CC5)ncc4c32)cn1` (stereo not shown) [Example 18, methyl 5-[[3-cyclopropyl-5-(2-methylpropylsulfamoyl)-8,9-dihydro-7H-cyclopenta[h]isoquinolin-9-yl]amino]pyridine-2-carboxylate], the IC50 was 10 to 50 nM.
Then `CCNC1=NS(=O)(=O)N=C1NC1CCc2c1cc(S(=O)(=O)NCC(C)C)c1cc(C3CC3)ncc21` (stereo not shown) [Example 54, 3-cyclopropyl-7-[[4-(ethylamino)-1,1-dioxo-1,2,5-thiadiazol-3-yl]amino]-N-(2-methylpropyl)-8,9-dihydro-7H-cyclopenta[h]isoquinoline-5-sulfonamide], with 100 to 2000 nM.
